In patent EP4772513A1, “PI3K-ALPHA INHIBITOR AND USE THEREOF” (TYK Medicines (Zhengzhou), Inc., priority 2023, dated 2025):
pIC50: −log10 of the molar value.

Tests used:
[1] = tested on: Human breast cancer cells T47D (H1047R); test: Cell proliferation inhibition assay (CTG), T47D (H1047R); assay type: cell-based; settings: 3 days incubation, CTG readout
Experimental: (§1) Cell Proliferation Inhibition Assay
(§2) 1. Experimental Materials
(§3) II. Experimental Protocol
(§4) • a) Cell suspension was prepared; • b) The medium was removed from the culture flask; • c) The cells were rinsed once with PBS; • d) Trypsin was added for digestion, and the cells were centrifuged and collected; • e) The cells were resuspended in medium, counted and adjusted to an appropriate concentration; • f) 100 µL of cell suspension was added to each well of a 96-well plate. One plate was used for each cell line, which was incubated overnight in a 37 °C, 5% CO2 incubator.
(§5) 2. Treatment of Compounds
(§6) • a) Serial dilutions of the test compounds were prepared: The compound was prepared as a 10 mM stock solution. 18 µL of the stock solution was dissolved in 982 µL of the culture medium containing DMSO, followed by 4-fold serial dilutions in culture medium containing 0.5% DMSO to give 9 concentrations. The concentrations of the diluted compound were as follows: 180000 nM, 45000 nM, 11250 nM, 2812.5 nM, 703.13 nM, 175.78 nM, 43.95 nM, 10.99 nM, and 2.75 nM. • b) After thorough mixing, 20 µL of each compound solution was added to the cell plate containing 100 µL of cells per well. Each concentration was tested in triplicate. Final concentrations of the compound were as follows: 30000 nM, 7500 nM, 1875 nM, 468.75 nM, 117.188 nM, 29.30 nM, 7.32 nM, 1.83 nM, and 0.46 nM. • c) The cells were transferred into the incubator and incubated for 3 days.
(§7) The cell plate was removed, 25 µL of CTG reagent was added to each well of the 96-well plate, the mixture was shook on a plate shaker at room temperature for 10 minutes, and the plate was read.
(§8) The cell survival rate was calculated using the following formula (% Cell Survival): % Cell Survival = 100% × (OD_Sample−OD_LCave)/(OD_HC−OD_LCave) [formula] • OD_HC: Reading of the 0.1‰ DMSO control group • OD_Sample: Reading of cells treated with compound • OD_LCave: Reading of blank medium
(§9) Analyzed by Prism: Dose-response-Inhibition - Log (inhibitor) vs response (three parameters for the best fit).

[2] = tested on: Human breast cancer cells SK-BR-3 (WT); test: Cell proliferation inhibition assay (CTG), SK-BR-3 (WT); assay type: cell-based; settings: SK-BR-3 (WT) cells, 3 days incubation, CTG readout
Experimental: as §1, §2, §3, §4, §5, §6, §7, §8, §9

| pIC50 ([1]; Homo sapiens, 72 h) | pIC50 ([2]; Homo sapiens, 72 h) | pIC50 [1] | pIC50 [2] | Compound |
| --- | --- | --- | --- | --- |
| 5.70 to 6.30 | < 5.30 |  |  | CC(Nc1ccccc1C(=O)O)c1cc(F)cc2c(=O)n3c(nc12)CN(c1cccnc1)CC3 (single isomer, unassigned) [Compound C15] |
| ≥ 6.30 | < 5.30 |  |  | CC(Nc1ccccc1C(=O)O)c1cc(F)cc2c(=O)c3c(oc12)CN(S(=O)(=O)C(C)C)CC3 (single isomer, unassigned) [Compound C39] |
| ≥ 6.30 | < 5.30 |  |  | CC(Nc1ccccc1C(=O)O)c1cc(F)cc2c(=O)c3c(oc12)CN(C(=O)N1CCCC1)CC3 (single isomer, unassigned) [Compound C41] |
| ≥ 6.30 | < 5.30 |  |  | CC(Nc1ccccc1C(=O)O)c1cc(F)cc2c(=O)c3c(oc12)CN(C(=O)N1CCC1)CC3 (single isomer, unassigned) [Compound C47] |
| ≥ 6.30 | < 5.30 |  |  | Cc1cc(C(C)Nc2ccc(Cl)nc2C(=O)O)c2oc3c(c(=O)c2c1)CCN(S(=O)(=O)C(C)C)C3 (single isomer, unassigned) [Compound C49] |
| ≥ 6.30 | < 5.30 |  |  | Cc1cc(C(C)Nc2ccccc2C(=O)O)c2oc3c(c(=O)c2c1)CCN(C(=O)N1CCCC1)C3 (single isomer, unassigned) [Compound C50] |
| ≥ 6.30 | < 5.30 |  |  | Cc1cc(C(C)Nc2ccccc2C(=O)O)c2oc3c(c(=O)c2c1)CCN(S(=O)(=O)N1CCCC1)C3 (single isomer, unassigned) [Compound C56] |
| ≥ 6.30 | < 5.30 |  |  | Cc1cc(C(C)Nc2ccccc2C(=O)O)c2oc3c(c(=O)c2c1)CCN(S(=O)(=O)C1CC1)C3 (single isomer, unassigned) [Compound C59] |
| ≥ 6.30 | < 5.30 |  |  | Cc1cc(C(C)Nc2ccccc2C(=O)O)c2oc3c(c(=O)c2c1)CCN(S(=O)(=O)c1ccccc1)C3 (single isomer, unassigned) [Compound C61] |
| ≥ 6.30 | < 5.30 |  |  | CC(Nc1ccccc1C(=O)O)c1cc(F)cc2c(=O)c3c(oc12)C(C)N(S(=O)(=O)C(C)C)CC3 (single isomer, unassigned) [Compound C163] |
| ≥ 6.30 | < 5.30 |  |  | Cc1cc(C(C)Nc2ccc(Cl)nc2C(=O)O)c2nc3c(c(=O)n2c1)CCN(S(=O)(=O)c1c(C)cnn1C)C3 (single isomer, unassigned) [Compound C184] |
| ≥ 6.30 | < 5.30 |  |  | Cc1cc(C(C)Nc2ccccc2C(=O)O)c2nc3c(c(=O)n2c1)CCN(S(=O)(=O)C(C)C)C3 (single isomer, unassigned) [Compound C196] |
| ≥ 6.30 | < 5.30 |  |  | Cc1cc(C(C)Nc2ccccc2C(=O)O)c2oc3c(c(=O)c2c1)CCN(C(c1ccccc1)C(F)(F)F)C3 (single isomer, unassigned) [Compound C207] |
|  |  | ≥ 6.30 | < 5.30 | Cc1cc(C(C)Nc2ccccc2C(=O)O)c2oc3c(c(=O)c2c1)CCN(C(c1ccccc1)C(F)(F)F)C3 (single isomer, unassigned) [Compound C209] |
| ≥ 6.30 | < 5.30 |  |  | C[C@@H](Nc1ccc(Cl)nc1C(=O)O)c1cc(Cl)cc2c(=O)c3c(oc12)CN(S(=O)(=O)N1CCOCC1)CC3 [Compound C66] |
| ≥ 6.30 | < 5.30 |  |  | C[C@@H](Nc1ccc(Cl)nc1C(=O)O)c1cc(F)cc2c(=O)c3c(oc12)CN(S(=O)(=O)N1CCOCC1)CC3 [Compound C67] |
| 5.70 to 6.30 | < 5.30 |  |  | C[C@@H](Nc1ccc(Cl)nc1C(=O)O)c1cc(F)cc2c(=O)c3c(oc12)CN(S(=O)(=O)C1CC1)CC3 [Compound C68] |
| 5.70 to 6.30 | < 5.30 |  |  | CC(C)S(=O)(=O)N1CCc2c(oc3c([C@@H](C)Nc4ccc(Cl)nc4C(=O)O)cc(F)cc3c2=O)C1 [Compound C72] |
| 5.70 to 6.30 | < 5.30 |  |  | C[C@@H](Nc1ccc(Cl)nc1C(=O)O)c1cc(F)cc2c(=O)c3c(oc12)CN(S(=O)(=O)N1CCC1)CC3 [Compound C73] |
| ≥ 6.30 | < 5.30 |  |  | C[C@@H](Nc1ccc(Cl)nc1C(=O)O)c1cc(F)cc2c(=O)c3c(oc12)CN(S(=O)(=O)c1ccccc1)CC3 [Compound C77] |
| 5.70 to 6.30 | < 5.30 |  |  | C[C@@H](Nc1ccccc1C(=O)O)c1cc(F)cc2c(=O)c3c(oc12)CN(S(=O)(=O)C1CC1)CC3 [Compound C78] |
| ≥ 6.30 | < 5.30 |  |  | C[C@@H](Nc1ccccc1C(=O)O)c1cc(F)cc2c(=O)c3c(oc12)CN(S(=O)(=O)N1CCOCC1)CC3 [Compound C80] |

| pIC50 ([1]; Homo sapiens, 72 h) | pIC50 ([2]; Homo sapiens, 72 h) | pIC50 [1] | pIC50 [2] | Compound |
| --- | --- | --- | --- | --- |
| 5.70 to 6.30 | < 5.30 |  |  | Cc1cc([C@@H](C)Nc2ccc(Cl)nc2C(=O)O)c2oc3c(c(=O)c2c1)CCN(S(=O)(=O)N1CCOCC1)C3 [Compound C81] |
| ≥ 6.30 | < 5.30 |  |  | Cc1cc([C@@H](C)Nc2ccc(Cl)nc2C(=O)O)c2oc3c(c(=O)c2c1)CCN(S(=O)(=O)c1ccccc1)C3 [Compound C82] |
| 5.70 to 6.30 | < 5.30 |  |  | C[C@@H](Nc1ccc(Cl)nc1C(=O)O)c1cc(F)cc2c(=O)c3c(oc12)CN(C(=O)N1CC(F)C1)CC3 [Compound C83] |
| ≥ 6.30 | < 5.30 |  |  | C[C@@H](Nc1ccccc1C(=O)O)c1cc(F)cc2c(=O)c3c(oc12)CN(S(=O)(=O)c1ccccc1)CC3 [Compound C89] |
| ≥ 6.30 | < 5.30 |  |  | C[C@@H](Nc1ccc(Cl)nc1C(=O)O)c1cc(F)cc2c(=O)c3c(oc12)CN(S(=O)(=O)c1ccccc1C#N)CC3 [Compound C90] |
| 5.70 to 6.30 | < 5.30 |  |  | C[C@@H](Nc1ccc(Cl)nc1C(=O)O)c1cc(F)cc2c(=O)c3c(oc12)CN(S(=O)(=O)c1cccc(C#N)c1)CC3 [Compound C91] |
| 5.70 to 6.30 | < 5.30 |  |  | C[C@@H](Nc1ccc(Cl)nc1C(=O)O)c1cc(F)cc2c(=O)c3c(oc12)CN(S(=O)(=O)c1ccc(C#N)cc1)CC3 [Compound C92] |
| ≥ 6.30 | < 5.30 |  |  | C[C@@H](Nc1ccc(Cl)nc1C(=O)O)c1cc(F)cc2c(=O)c3c(oc12)CN(S(=O)(=O)c1ccccc1F)CC3 [Compound C93] |
| ≥ 6.30 | < 5.30 |  |  | C[C@@H](Nc1ccc(Cl)nc1C(=O)O)c1cc(F)cc2c(=O)c3c(oc12)CN(S(=O)(=O)c1cccc(F)c1)CC3 [Compound C94] |
| ≥ 6.30 | < 5.30 |  |  | C[C@@H](Nc1ccc(Cl)nc1C(=O)O)c1cc(F)cc2c(=O)c3c(oc12)CN(S(=O)(=O)c1ccc(F)cc1)CC3 [Compound C95] |
| ≥ 6.30 | < 5.30 |  |  | COc1ccccc1S(=O)(=O)N1CCc2c(oc3c([C@@H](C)Nc4ccc(Cl)nc4C(=O)O)cc(F)cc3c2=O)C1 [Compound C96] |
| ≥ 6.30 | < 5.30 |  |  | COc1cccc(S(=O)(=O)N2CCc3c(oc4c([C@@H](C)Nc5ccc(Cl)nc5C(=O)O)cc(F)cc4c3=O)C2)c1 [Compound C97] |
| ≥ 6.30 | < 5.30 |  |  | COc1ccc(S(=O)(=O)N2CCc3c(oc4c([C@@H](C)Nc5ccc(Cl)nc5C(=O)O)cc(F)cc4c3=O)C2)cc1 [Compound C98] |
| 5.70 to 6.30 | < 5.30 |  |  | C[C@@H](Nc1ccc(Cl)nc1C(=O)O)c1cc(F)cc2c(=O)c3c(oc12)CN(S(=O)(=O)c1nccn1C)CC3 [Compound C101] |
| 5.70 to 6.30 | < 5.30 |  |  | C[C@@H](Nc1ccc(Cl)nc1C(=O)O)c1cc(F)cc2c(=O)c3c(oc12)CN(S(=O)(=O)C1CCCC1)CC3 [Compound C108] |
| ≥ 6.30 | < 5.30 |  |  | C[C@@H](Nc1ccc(Cl)nc1C(=O)O)c1cc(F)cc2c(=O)c3c(oc12)CN(S(=O)(=O)C1CCCCC1)CC3 [Compound C109] |
| ≥ 6.30 | < 5.30 |  |  | Cc1cc([C@@H](C)Nc2ccc(Cl)nc2C(=O)O)c2oc3c(c(=O)c2c1)CCN(S(=O)(=O)C1(C)CC1)C3 [Compound C113] |
| ≥ 6.30 | < 5.30 |  |  | C[C@@H](Nc1ccc(Cl)nc1C(=O)O)c1cc(F)cc2c(=O)c3c(oc12)CN(S(=O)(=O)c1c(F)cccc1F)CC3 [Compound C114] |
| ≥ 6.30 | < 5.30 |  |  | C[C@@H](Nc1ccc(Cl)nc1C(=O)O)c1cc(F)cc2c(=O)c3c(oc12)CN(S(=O)(=O)c1ccccc1C(F)(F)F)CC3 [Compound C115] |
| ≥ 6.30 | < 5.30 |  |  | C[C@@H]1COCCN1S(=O)(=O)N1CCc2c(oc3c([C@@H](C)Nc4ccc(Cl)nc4C(=O)O)cc(F)cc3c2=O)C1 [Compound C116] |
| ≥ 6.30 | < 5.30 |  |  | C[C@@H](Nc1ccc(Cl)nc1C(=O)O)c1cc(F)cc2c(=O)c3c(oc12)CN(S(=O)(=O)N1CCOC[C@@H]1C)CC3 [Compound C117] |
| ≥ 6.30 | < 5.30 |  |  | Cc1noc(C)c1S(=O)(=O)N1CCc2c(oc3c([C@@H](C)Nc4ccc(Cl)nc4C(=O)O)cc(F)cc3c2=O)C1 [Compound C118] |
